Experimental findings from patent publication US20240148821A1, “PHARMACEUTICAL USE OF CYCLIC PEPTIDE COMPOUND” (CHUGAI SEIYAKU KABUSHIKI KAISHA, priority 2021, published 2024) are described below.

Structures are written as SMILES. pIC50: −log10 of the molar value. Numbered stars: 1 amine (or outer) side, 2 acyl side, 3 side chain; on linkers, the order of the positions; unused ones are H or OH. Bridge positions count the residues as written; N and C are the ends. Square brackets hold non-standard residues; d marks the D form. Peptide text beside a SMILES is read from it. * marks the point of attachment. hPhe(3,5-F2-4-CF3) = N[C@@H](CCc1cc(F)c(C(F)(F)F)c(F)c1)C(=O)O; hPhe(3-Cl-4-CF3) = N[C@@H](CCc1ccc(C(F)(F)F)c(Cl)c1)C(=O)O; hPhe(3-F,4-CF3) = N[C@@H](CCc1ccc(C(F)(F)F)c(F)c1)C(=O)O; NMePhe(4-CF3) = CN[C@@H](Cc1ccc(C(F)(F)F)cc1)C(=O)O; NMeAbu(4,4,4-F3) = CN[C@@H](CC(F)(F)F)C(=O)O; NMePhe(4-Cl) = CN[C@@H](Cc1ccc(Cl)cc1)C(=O)O; NMedβ3hAla = C[C@H](CC(=O)[*:2])N(C)[*:1]; NMeGly(cPent) = CN[C@H](C(=O)O)C1CCCC1; NMeAla(cPr) = CN[C@@H](CC1CC1)C(=O)O; NMeCha = CN[C@@H](CC1CCCCC1)C(=O)O; Hyp = O=C(O)[C@@H]1C[C@@H](O)CN1; NMeChg = CN[C@H](C(=O)O)C1CCCCC1; NMeI = CC[C@H](C)[C@H](NC)C(=O)O; NMeD = CN[C@@H](CC(=O)O)C(=O)O; NMeL = CN[C@@H](CC(C)C)C(=O)O; NMePra = C#CC[C@H](NC)C(=O)O; NMeV = CN[C@H](C(=O)O)C(C)C; d(β3hA) = C[C@@H](N)CC(=O)O; Morpholide = C1CN(*)CCO1; NMeA = CN[C@@H](C)C(=O)O; NMeAib = CNC(C)(C)C(=O)O; Nle = CCCC[C@H](N)C(=O)O; Piperidide = C1CCN(*)CC1; Pyrrolidide = C1CCN(*)C1; dNMeA = CN[C@H](C)C(=O)O; Ac5c = NC1(C(=O)O)CCCC1; Aze = O=C(O)[C@@H]1CCN1; Isopentyl = CC(C)CC*; Sar = CNCC(=O)O Bounds are passed on as bounds.

In test [1] the target is protein-protein interaction between Kras and SOS1 (biotin-tagged human Kras loaded with GDP, His-tagged human SOS1) (Homo sapiens (Human), UniProt P01116, G12D). Nature of the test: Protein-protein interaction inhibition between Kras and SOS1 (KrasG12D-SOS PPI) using AlphaScreen.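 Also: kras produced in E. coli, Ni-coupled donor beads and streptavidin acceptor beads, excitation 680 nm with emission detected at 520–620 nm via singlet oxygen transfer.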 The class given is biochemical. Conditions: AlphaScreen; biotin-tagged human Kras loaded with GDP, His-tagged human SOS1; read-out: KRAS G12D-SOS PPI IC50. On the technique in general: In Alpha technology, singlet oxygen from a donor bead excites a nearby acceptor bead.

The subject of test [2] is Human pancreatic cancer cell line AsPC-1 (G12D mutation Kras). The experiment in a line: AsPC-1 cell growth inhibition (AsPC-1 CGI). The class given is cell-based. Conditions: read-out: AsPC-1 cell growth inhibition, 50% growth inhibitory concentration (IC50 value); 96 hours, CellTiter-Glo, values classified in ranges. (Cellular ATP, detected with luciferase, serves as a proxy for viable cell number.)
Experimental: Test compounds were serially dilated with dimethyl sulfoxide, and 200 nL was then dispensed to a U-bottom 96-well plate using Labcyte Echo. […] The cell suspension was dispensed to a. plate containing a test compound at 100 μL per well and incubated at 37° C. in a 5% carbon dioxide gas incubator. 96 hours later, 80 μL of CellTiter-Glo (Promega) was added to each well and fluorescence was measured.

On to `CCCC[C@@H]1NC(=O)C(C)(C)N(C)C(=O)[C@H](CC(C)C)NC(=O)[C@H](CCc2ccc(C(F)(F)F)c(F)c2)NC(=O)CN(C)C(=O)[C@H](Cc2ccc(Cl)cc2)N(C)C(=O)CN(C)C(=O)CN(C)C(=O)[C@H]([C@@H](C)CC)NC(=O)[C@H](CC(C)C)N(C)C(=O)C[C@@H](C)N(C)C1=O` [Compound 83] (cyclo(I[Sar][Sar][NMePhe(4-Cl)][Sar][hPhe(3-F,4-CF3)]L[NMeAib][Nle][NMedβ3hAla][NMeL])), for which the pIC50 is 6.96 in test [1] and under 6.30 in test [2].

In the case of `CC[C@H](C)[C@@H]1NC(=O)[C@H](C)N(C)C(=O)C[C@@H](C)NC(=O)[C@H](C(C)C)N(C)C(=O)C2(CCCC2)NC(=O)[C@@H]2CCCN2C(=O)[C@H](CCc2ccc(C(F)(F)F)c(Cl)c2)NC(=O)CN(C)C(=O)[C@H](CC2CCCCC2)N(C)C(=O)[C@@H]2CCCN2C(=O)CN(C)C1=O` [Compound 1056] (cyclo([Ac5c][NMeV][d(β3hA)][NMeA]I[Sar]P[NMeCha][Sar][hPhe(3-Cl-4-CF3)]P)), the pIC50 in test [1] is 7.74; in test [2], under 6.30.

Take `CC[C@H](C)[C@@H]1NC(=O)[C@H](CC(C)C)N(C)C(=O)C[C@@H](C(=O)N2CCCCC2)N(C)C(=O)[C@H](C2CCCCC2)N(C)C(=O)C2(CCCC2)NC(=O)[C@H](CC2CC2)N(C)C(=O)[C@H](CCc2ccc(C(F)(F)F)c(Cl)c2)NC(=O)CN(C)C(=O)[C@H](CC2CCCCC2)N(C)C(=O)CN(C)C(=O)CN(C)C1=O` [Compound 200] ([NMeL]I[Sar][Sar][NMeCha][Sar][hPhe(3-Cl-4-CF3)][NMeAla(cPr)][Ac5c][NMeChg][NMeD]-Piperidide; lactam N-11): the pIC50 in test [1] is 7.89; in test [2] it was under 6.30.

Turning to `C#CC[C@H]1C(=O)N(C)CC(=O)N[C@@H](CCc2ccc(C(F)(F)F)c(Cl)c2)C(=O)N2CCC[C@H]2C(=O)NC2(CCCC2)C(=O)N(C)[C@@H](C(C)C)C(=O)N(C)[C@H](C(=O)N2CCCCC2)CC(=O)N(C)[C@@H](CC(C)C)C(=O)N[C@@H]([C@@H](C)CC)C(=O)N(C)[C@@H](C)C(=O)N2CC[C@H]2C(=O)N1C` [Compound 32] ([NMeL]I[NMeA][Aze][NMePra][Sar][hPhe(3-Cl-4-CF3)]P[Ac5c][NMeV][NMeD]-Piperidide; lactam N-11), the pIC50 was 7.70 in test [1] and under 6.30 in test [2].

`CC[C@H](C)[C@@H]1NC(=O)[C@H](C)N(C)C(=O)C[C@@H](C)NC(=O)[C@H](C2CCCC2)N(C)C(=O)C2(CCCC2)NC(=O)[C@@H]2CCCN2C(=O)[C@H](CCc2ccc(C(F)(F)F)c(Cl)c2)NC(=O)[C@@H](C)N(C)C(=O)[C@H](Cc2ccc(Cl)cc2)N(C)C(=O)[C@@H]2CCN2C(=O)[C@H](C)N(C)C1=O` [Compound 720] (cyclo([Ac5c][NMeGly(cPent)][d(β3hA)][NMeA]I[NMeA][Aze][NMePhe(4-Cl)][dNMeA][hPhe(3-Cl-4-CF3)]P)): the pIC50 in test [1] was 7.41; in test [2], under 6.30.

As to `CC(C)CCOC[C@@H]1NC(=O)[C@H](CC(C)C)N(C)C(=O)C[C@@H](C(=O)N2CCCCC2)N(C)C(=O)[C@H](C(C)C)N(C)C(=O)C2(CCCC2)NC(=O)[C@@H]2CCCN2C(=O)[C@H](CCc2ccc(C(F)(F)F)c(Cl)c2)NC(=O)CN(C)C(=O)[C@H](CC2CCCCC2)N(C)C(=O)[C@@H]2CCN2C(=O)[C@H](C)N(C)C1=O` [Compound 485] ([NMeL]S(Isopentyl)[NMeA][Aze][NMeCha][Sar][hPhe(3-Cl-4-CF3)]P[Ac5c][NMeV][NMeD]-Piperidide; lactam N-11), the pIC50 in test [1] was 6.80; in test [2] it was under 6.30.

For the molecule `CCO[C@@H]1C[C@H]2C(=O)NC3(CCCC3)C(=O)N(C)[C@@H]([C@@H](C)CC)C(=O)N(C)[C@H](C(=O)N3CCCC3)CC(=O)N(C)[C@@H](CC(C)C)C(=O)N[C@@H]([C@@H](C)CC)C(=O)N(C)[C@@H](C)C(=O)N3CC[C@H]3C(=O)N(C)[C@@H](Cc3ccc(C(F)(F)F)cc3)C(=O)N(C)CC(=O)N[C@@H](CCc3cc(F)c(C(F)(F)F)c(F)c3)C(=O)N2C1` [Compound 1210] ([NMeL]I[NMeA][Aze][NMePhe(4-CF3)][Sar][hPhe(3,5-F2-4-CF3)][Hyp](Et)[Ac5c][NMeI][NMeD]-Pyrrolidide; lactam N-11), the pIC50 in test [1] was 9.13; in test [2], at least 7.70.

Regarding `CCO[C@@H]1C[C@H]2C(=O)NC3(CCCC3)C(=O)N(C)[C@@H](C3CCCCC3)C(=O)N(C)[C@H](C(=O)N3CCOCC3)CC(=O)N(C)[C@@H](CC(F)(F)F)C(=O)N[C@@H]([C@@H](C)CC)C(=O)N(C)CC(=O)N(C)CC(=O)N(C)[C@@H](Cc3ccc(C(F)(F)F)cc3)C(=O)N(C)CC(=O)N[C@@H](CCc3cc(F)c(C(F)(F)F)c(F)c3)C(=O)N2C1` [Compound 1297] ([NMeAbu(4,4,4-F3)]I[Sar][Sar][NMePhe(4-CF3)][Sar][hPhe(3,5-F2-4-CF3)][Hyp](Et)[Ac5c][NMeChg][NMeD]-Morpholide; lactam N-11), the pIC50 was 9.29 in test [1] and at least 7.70 in test [2].
